From patent publication US11147272B2, “Pyridone compounds and agricultural and horticultural fungicides comprising the same as active ingredients” (MITSUI CHEMICALS AGRO, INC., priority 2017, dated 2021)

Columns and labels:
[1] = tested on: Colletotrichum orbiculare; assay: Test Example H: Anthracnose on cucumber; settings: 250 ppm drug solution sprayed (2.5 ml/pot), cucumber Sagami Hanjiro, 6 to 10 days after inoculation
[2] = tested on: Blumeria graminis f. sp. hordei; assay: Test Example D: Powdery mildew on barley; settings: 250 ppm drug solution sprayed on test plant
Botrytis cinerea = assay: Test Example B: Gray mold on tomato; settings: 250 ppm drug solution sprayed on test plant
Plasmopara viticola = assay: Test Example G: Downy mildew on vine; settings: 250 ppm drug solution sprayed (2.5 ml/pot), grape Neomuscat, 7 to 10 days after inoculation
Phytophthora infestans = assay: whole plant or invertebrate; format: in vivo; settings: 250 ppm drug solution sprayed on test plant
Puccinia recondita = assay: Test Example E: Brown rust on wheat; format: in vivo; settings: 250 ppm drug solution sprayed on test plant
Magnaporthe grisea = assay: whole plant or invertebrate; format: in vivo; settings: 250 ppm drug solution sprayed on test plant
Alternaia brassicicola = assay: Test Example C: Alternaria sooty spot on cabbage; format: in vivo; settings: 250 ppm drug solution sprayed on test plant
Description: Seeds of a test plant (cabbage variety: Shikidori) were planted and cultivated until the cotyledons extended.
<Control Value> Control value=100{1−(n/3)}

SMILES: CCn1c(-c2c(F)cc(F)cc2F)c(C(=O)C(C)C)ccc1=O [compound 454]
- Test H control value [1]: H (more than 50% control value)
- Test D control value [2]: H (more than 50% control value)
- Test B control value (Botrytis cinerea): H (more than 50% control value)
- Test G control value (Plasmopara viticola): L (50% or less control value)
- Test F control value (Phytophthora infestans): L (50% or less control value)
- Test E control value (Puccinia recondita): H (more than 50% control value)
- Test A control value (Magnaporthe grisea): L (50% or less control value)
- Test C control value (Alternaia brassicicola): H (more than 50% control value)

SMILES: CCn1c(-c2c(F)cc(F)cc2F)c(C(C)(O)C(C)C)ccc1=O (stereo not shown) [compound 455]
- Test H control value [1]: H (more than 50% control value)
- Test D control value [2]: H (more than 50% control value)
- Test B control value (Botrytis cinerea): H (more than 50% control value)
- Test G control value (Plasmopara viticola): H (more than 50% control value)
- Test F control value (Phytophthora infestans): L (50% or less control value)
- Test E control value (Puccinia recondita): H (more than 50% control value)
- Test A control value (Magnaporthe grisea): L (50% or less control value)
- Test C control value (Alternaia brassicicola): H (more than 50% control value)

SMILES: CCCc1ccc(=O)n(CC)c1-c1c(F)cc(OCC)cc1F [compound 456]
- Test H control value [1]: H (more than 50% control value)
- Test D control value [2]: H (more than 50% control value)
- Test B control value (Botrytis cinerea): H (more than 50% control value)
- Test G control value (Plasmopara viticola): H (more than 50% control value)
- Test F control value (Phytophthora infestans): L (50% or less control value)
- Test E control value (Puccinia recondita): H (more than 50% control value)
- Test A control value (Magnaporthe grisea): H (more than 50% control value)
- Test C control value (Alternaia brassicicola): H (more than 50% control value)

SMILES: CCCc1cc(Cl)c(=O)n(CC)c1-c1c(F)cc(OCC)cc1F [compound 457]
- Test H control value [1]: H (more than 50% control value)
- Test D control value [2]: H (more than 50% control value)
- Test B control value (Botrytis cinerea): H (more than 50% control value)
- Test G control value (Plasmopara viticola): L (50% or less control value)
- Test F control value (Phytophthora infestans): L (50% or less control value)
- Test E control value (Puccinia recondita): H (more than 50% control value)
- Test A control value (Magnaporthe grisea): H (more than 50% control value)
- Test C control value (Alternaia brassicicola): H (more than 50% control value)

SMILES: CCCc1cc(Br)c(=O)n(CC)c1-c1c(F)cc(OCC)cc1F [compound 458]
- Test H control value [1]: H (more than 50% control value)
- Test D control value [2]: H (more than 50% control value)
- Test B control value (Botrytis cinerea): H (more than 50% control value)
- Test G control value (Plasmopara viticola): H (more than 50% control value)
- Test F control value (Phytophthora infestans): L (50% or less control value)
- Test E control value (Puccinia recondita): H (more than 50% control value)
- Test A control value (Magnaporthe grisea): H (more than 50% control value)
- Test C control value (Alternaia brassicicola): H (more than 50% control value)

SMILES: C#CCOc1cc(F)c(-c2c(CCC)ccc(=O)n2CC)c(F)c1 [compound 459]
- Test H control value [1]: H (more than 50% control value)
- Test D control value [2]: H (more than 50% control value)
- Test B control value (Botrytis cinerea): H (more than 50% control value)
- Test G control value (Plasmopara viticola): H (more than 50% control value)
- Test F control value (Phytophthora infestans): L (50% or less control value)
- Test E control value (Puccinia recondita): H (more than 50% control value)
- Test A control value (Magnaporthe grisea): H (more than 50% control value)
- Test C control value (Alternaia brassicicola): H (more than 50% control value)

SMILES: CC#CCOc1cc(F)c(-c2c(CCC)ccc(=O)n2CC)c(F)c1 [compound 460]
- Test H control value [1]: H (more than 50% control value)
- Test D control value [2]: H (more than 50% control value)
- Test B control value (Botrytis cinerea): H (more than 50% control value)
- Test G control value (Plasmopara viticola): H (more than 50% control value)
- Test F control value (Phytophthora infestans): L (50% or less control value)
- Test E control value (Puccinia recondita): H (more than 50% control value)
- Test A control value (Magnaporthe grisea): H (more than 50% control value)
- Test C control value (Alternaia brassicicola): H (more than 50% control value)

SMILES: CC#CCOc1cc(F)c(-c2c(CCC)cc(Cl)c(=O)n2CC)c(F)c1 [compound 461]
- Test H control value [1]: H (more than 50% control value)
- Test D control value [2]: H (more than 50% control value)
- Test B control value (Botrytis cinerea): H (more than 50% control value)
- Test G control value (Plasmopara viticola): H (more than 50% control value)
- Test F control value (Phytophthora infestans): L (50% or less control value)
- Test E control value (Puccinia recondita): H (more than 50% control value)
- Test A control value (Magnaporthe grisea): H (more than 50% control value)
- Test C control value (Alternaia brassicicola): H (more than 50% control value)

SMILES: CC#CCOc1cc(F)c(-c2c(CCC)cc(Br)c(=O)n2CC)c(F)c1 [compound 462]
- Test H control value [1]: H (more than 50% control value)
- Test D control value [2]: L (50% or less control value)
- Test B control value (Botrytis cinerea): H (more than 50% control value)
- Test G control value (Plasmopara viticola): L (50% or less control value)
- Test F control value (Phytophthora infestans): H (more than 50% control value)
- Test E control value (Puccinia recondita): H (more than 50% control value)
- Test A control value (Magnaporthe grisea): L (50% or less control value)
- Test C control value (Alternaia brassicicola): H (more than 50% control value)

SMILES: C#CCOc1cc(F)c(-c2c(CCC)cc(Cl)c(=O)n2CC)c(F)c1 [compound 463]
- Test H control value [1]: H (more than 50% control value)
- Test D control value [2]: H (more than 50% control value)
- Test B control value (Botrytis cinerea): H (more than 50% control value)
- Test G control value (Plasmopara viticola): H (more than 50% control value)
- Test F control value (Phytophthora infestans): L (50% or less control value)
- Test E control value (Puccinia recondita): H (more than 50% control value)
- Test A control value (Magnaporthe grisea): H (more than 50% control value)
- Test C control value (Alternaia brassicicola): H (more than 50% control value)

SMILES: C#CCOc1cc(F)c(-c2c(CCC)cc(Br)c(=O)n2CC)c(F)c1 [compound 464]
- Test H control value [1]: H (more than 50% control value)
- Test D control value [2]: H (more than 50% control value)
- Test B control value (Botrytis cinerea): H (more than 50% control value)
- Test G control value (Plasmopara viticola): L (50% or less control value)
- Test F control value (Phytophthora infestans): L (50% or less control value)
- Test E control value (Puccinia recondita): H (more than 50% control value)
- Test A control value (Magnaporthe grisea): L (50% or less control value)
- Test C control value (Alternaia brassicicola): H (more than 50% control value)
